Measurements published in the supplement of paper PMC11061612.

Assays:
[1] = compound: C1CN(CCC1(C(=O)N[C@@H](CCO)C2=CC=C(C=C2)Cl)N)C3=NC=NC4=C3C=CN4 [AZD5363]; settings: max 10 µM
Outline: (§1)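 Cancer cell lines were dosed for 72 hours (final DMSO typically 0.2%) after 24 hours at 37°C and 5% CO2 in 1536-well plates containing 7.5 μl DMEM/F12 or RPMI with 10% FBS. Viability came from CellTiter-Glo 2.0 luminescence, scaled between blank-well and DMSO-well means, and dose responses were fitted to a two-parameter logistic curve with a non-linear mixed effects model. The single-agent IC50 was obtained from this fit.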

[2] = compound: C=CCn1c(=O)c2cnc(Nc3ccc(N4CCN(C)CC4)cc3)nc2n1-c1cccc(C(C)(C)O)n1 [AZD1775]; settings: max 3 µM
Outline: as §1

[3] = compound: CN(CC[C@H](CSC1=CC=CC=C1)NC2=C(C=C(C=C2)S(=O)(=O)NC(=O)C3=CC=C(C=C3)N4CCC(CC4)[C@H](C5=CC=CC=C5C6=CC=C(C=C6)Cl)O)S(=O)(=O)C(F)(F)F)CCO [AZD4320]; settings: max 1 µM
Outline: as §1

[4] = compound: COc1nnc2ccc(N3CCC(c4ccc(OCCN5CCN(C)C(=O)[C@H]5C)cc4)CC3)nn12 [AZD5153]; settings: max 1 µM
Outline: as §1

[5] = compound: Cc1c2c(nn1C)CSCc1cc(n(C)n1)CSc1cc(c3ccccc3c1)OCCCc1c(C(=O)O)n(C)c3c-2c(Cl)ccc13 [AZD5991]; settings: max 1 µM
Outline: as §1

[6] = compound: C[C@@H](c1ccc2nccn2c1)n1nnc2ncc(-c3cnn(C)c3)nc21 [Savolitinib]; settings: max 1 µM
Outline: as §1

[7] = compound: Cc1cc2ncnn2cc1Nc1ncc2c(n1)n(C1CCOCC1)c(=O)n2C [AZD7648]; settings: max 10 µM
Outline: as §1

[8] = compound: CCc1c2c(nc3ccc(O)cc13)-c1cc3c(c(=O)n1C2)COC(=O)[C@]3(O)CC [SN-38]; settings: max 0.3 µM
Outline: as §1

[9] = compound: CC(=O)c1c(C)c2cnc(Nc3ccc(N4CCNCC4)cn3)nc2n(C2CCCC2)c1=O [Palbociclib]; settings: max 10 µM
Outline: as §1

[10] = compound: N#Cc1cnc(Nc2cc(NC[C@H]3CNCCO3)c(C(F)(F)F)cn2)cn1 [SRA737]; settings: max 10 µM
Outline: as §1

[11] = compound: NC1(c2ccc(-c3nc4ccn5c(=O)[nH]nc5c4cc3-c3ccccc3)cc2)CCC1 [MK-2206]; settings: max 10 µM
Outline: as §1

[12] = compound: C[C@@H]1COCCN1C2=NC(=NC(=C2)C3(CC3)[S@](=N)(=O)C)C4=C5C=CNC5=NC=C4 [AZD6738]; settings: max 10 µM
Outline: as §1

[13] = compound: C[C@@H](Nc1cc(F)cc(F)c1)c1cc(C(=O)N(C)C)cc2c(=O)cc(N3CCOCC3)oc12 [AZD8186]; settings: max 10 µM
Outline: as §1

[14] = compound: Cc1nc(-c2cn3c(n2)-c2ccc(-c4cnn(C(C)(C)C(N)=O)c4)cc2OCC3)n(C(C)C)n1 [Taselisib]; settings: max 10 µM
Outline: as §1

[15] = compound: C1CC(C1)(C(=O)[O-])C(=O)[O-].N.N.[Pt+2] [Carboplatin]; settings: max 10 µM
Outline: as §1

[16] = compound: COc1cc(Nc2ncc3c(n2)-c2ccc(Cl)cc2C(c2c(F)cccc2OC)=NC3)ccc1C(=O)O [Alisertib]; settings: max 10 µM
Outline: as §1

[17] = compound: Nc1ccn([C@@H]2O[C@H](CO)[C@@H](O)C2(F)F)c(=O)n1 [Gemcitabine]; settings: max 0.3 µM
Outline: as §1

[18] = compound: COc1cc2ncnc(Nc3ccc(F)c(Cl)c3)c2cc1OCCCN1CCOCC1 [Gefitinib]; settings: max 10 µM
Outline: as §1

[19] = compound: COc1cccc(OCCCN)c1-c1cc(Nc2cnc(C#N)cn2)n[nH]1 [Prexasertib]; settings: max 1 µM
Outline: as §1

[20] = compound: CC1=CN2[C@@H](C1)C=NC3=CC(=C(C=C3C2=O)OC)OCCCCCOC4=C(C=C5C(=C4)N=C[C@@H]6CC(=CN6C5=O)C)OC [SG3199]; settings: max 0.001 µM
Outline: as §1

[21] = compound: CC(=O)O[C@H]1C(=O)[C@@]2(C)[C@H]([C@H](OC(=O)c3ccccc3)[C@]3(O)C[C@H](OC(=O)[C@H](O)[C@@H](NC(=O)c4ccccc4)c4ccccc4)C(C)=C1C3(C)C)[C@]1(OC(C)=O)CO[C@@H]1C[C@@H]2O [Paclitaxel]; settings: max 3 µM
Outline: as §1

[22] = compound: CCN(CCO)CCCOc1ccc2c(Nc3cc(CC(=O)Nc4cccc(F)c4)[nH]n3)ncnc2c1 [AZD2811]; settings: max 1 µM
Outline: as §1

[23] = compound: CC(C)n1c(=O)n(C)c2cnc3cc(F)c(-c4ccc(OCCCN5CCCCC5)nc4)cc3c21 [AZD1390]; settings: max 0.3 µM
Outline: as §1

[24] = compound: CC(=O)Nc1cccc(-n2c(=O)n(C3CC3)c(=O)c3c(Nc4ccc(I)cc4F)n(C)c(=O)c(C)c32)c1 [Trametinib]; settings: max 1 µM
Outline: as §1

[25] = compound: COc1cc([C@@H]2c3cc4c(cc3[C@@H](O[C@@H]3O[C@@H]5CO[C@@H](C)O[C@H]5[C@H](O)[C@H]3O)[C@H]3COC(=O)[C@H]23)OCO4)cc(OC)c1O [Etoposide]; settings: max 10 µM
Outline: as §1

[26] = compound: C[C@@H](Oc1cc(-c2cnn(C3CCNCC3)c2)cnc1N)c1c(Cl)ccc(F)c1Cl [Crizotinib]; settings: max 10 µM
Outline: as §1

[27] = compound: CS(=O)(=O)CCNCc1ccc(-c2ccc3ncnc(Nc4ccc(OCc5cccc(F)c5)c(Cl)c4)c3c2)o1 [Lapatinib]; settings: max 10 µM
Outline: as §1

[28] = compound: CC1=C(C(=CC=C1)Cl)NC(=O)C2=CN=C(S2)NC3=CC(=NC(=N3)C)N4CCN(CC4)CCO [Dasatinib]; settings: max 2 µM
Outline: as §1

[29] = compound: CN(C)CCCOc1ccc(-c2ccc3ncc4c(c3c2)n(C2CCOCC2)c(=O)n4C)cn1 [AZD0156]; settings: max 3 µM
Outline: as §1

[30] = compound: Cn1cnc2c(F)c(Nc3ccc(Br)cc3Cl)c(C(=O)NOCCO)cc21 [Selumetinib]; settings: max 10 µM
Outline: as §1

[31] = compound: O=c1[nH]cc(F)c(=O)[nH]1 [5-Fluorouracil]; settings: max 20 µM
Outline: as §1

[32] = compound: O=C(c1cc(Cc2n[nH]c(=O)c3ccccc23)ccc1F)N1CCN(C(=O)C2CC2)CC1 [Olaparib]; settings: max 10 µM
Outline: as §1

[33] = compound: COc1cccc2c1C(=O)c1c(O)c3c(c(O)c1C2=O)C[C@@](O)(C(=O)CO)C[C@@H]3O[C@H]1C[C@H](N)[C@H](O)[C@H](C)O1 [Doxorubicin]; settings: max 1 µM
Outline: as §1

[34] = compound: O=C(Nc1ccc2[nH]nc(-c3ccncc3)c2c1)[C@@H]1CCN(CC(=O)N2CCN(c3ccc(-c4ncccn4)cc3)CC2)C1; settings: max 5 µM
Outline: as §1

[35] = compound: CC1(C)CCC(CN2CCN(c3ccc(C(=O)NS(=O)(=O)c4ccc(NCC5CCOCC5)c([N+](=O)[O-])c4)c(Oc4cnc5[nH]ccc5c4)c3)CC2)=C(c2ccc(Cl)cc2)C1 [Venetoclax]; settings: max 1 µM
Outline: as §1

Row | Cell Line | IC50, cell viability 72 h [1] | IC50, cell viability 72 h [2] | IC50, cell viability 72 h [3] | IC50, cell viability 72 h [4] | IC50, cell viability 72 h [5] | IC50, cell viability 72 h [6] | IC50, cell viability 72 h [7] | IC50, cell viability 72 h [8] | IC50, cell viability 72 h [9] | IC50, cell viability 72 h [10] | IC50, cell viability 72 h [11] | IC50, cell viability 72 h [12] | IC50, cell viability 72 h [13] | IC50, cell viability 72 h [14] | IC50, cell viability 72 h [15] | IC50, cell viability 72 h [16] | IC50, cell viability 72 h [17] | IC50, cell viability 72 h [18] | IC50, cell viability 72 h [19] | IC50, cell viability 72 h [20] | IC50, cell viability 72 h [21] | IC50, cell viability 72 h [22] | IC50, cell viability 72 h [23] | IC50, cell viability 72 h [24] | IC50, cell viability 72 h [25] | IC50, cell viability 72 h [26] | IC50, cell viability 72 h [27] | IC50, cell viability 72 h [28] | IC50, cell viability 72 h [29] | IC50, cell viability 72 h [30] | IC50, cell viability 72 h [31] | IC50, cell viability 72 h [32] | IC50, cell viability 72 h [33] | IC50, cell viability 72 h [34] | IC50, cell viability 72 h [35]
1 | LOXIMVI (Melanoma) | > 10 µM | 1.37 µM | > 1 µM | 0.111 µM | > 1 µM | > 1 µM | > 10 µM | 0.0289 µM | 9.91 µM | > 10 µM | > 10 µM | 3.27 µM | > 10 µM | 2.17 µM | > 10 µM | 5.35 µM | 0.0589 µM | > 10 µM | 0.0896 µM | > 0.001 µM | 0.0268 µM | > 1 µM | > 0.3 µM | 0.0178 µM | > 10 µM | 6.35 µM | > 10 µM | 0.135 µM | > 3 µM | 1.5 µM | > 20 µM | > 10 µM | 0.294 µM | 0.145 µM | > 1 µM
2 | TGBC1TKB (Biliary Tract Carcinoma) | > 10 µM | > 3 µM | > 1 µM | > 1 µM | > 1 µM | > 1 µM | > 10 µM | > 0.3 µM | > 10 µM | > 10 µM | > 10 µM | > 10 µM | > 10 µM | > 10 µM | > 10 µM | > 10 µM | > 0.3 µM | > 10 µM | > 1 µM | > 0.001 µM | 0.969 µM | > 1 µM | > 0.3 µM | > 1 µM | > 10 µM | > 10 µM | > 10 µM | > 2 µM | > 3 µM | > 10 µM | > 20 µM | > 10 µM | > 1 µM | > 5 µM | > 1 µM
3 | MPP-89 (Mesothelioma) | > 10 µM | 1.55 µM | > 1 µM | > 1 µM | > 1 µM | > 1 µM | > 10 µM | 0.172 µM | > 10 µM | > 10 µM | > 10 µM | > 10 µM | > 10 µM | > 10 µM | > 10 µM | 9.37 µM | > 0.3 µM | > 10 µM | 0.0672 µM | > 0.001 µM | 0.842 µM | > 1 µM | > 0.3 µM | > 1 µM | > 10 µM | > 10 µM | > 10 µM | 0.558 µM | > 3 µM | > 10 µM | > 20 µM | > 10 µM | > 1 µM | > 5 µM | > 1 µM
4 | CAL-72 (Osteosarcoma) | > 10 µM | 0.587 µM | > 1 µM | > 1 µM | > 1 µM | > 1 µM | > 10 µM | 0.0423 µM | > 10 µM | > 10 µM | > 10 µM | 2.87 µM | > 10 µM | > 10 µM | > 10 µM | 5.04 µM | 0.128 µM | > 10 µM | 0.0169 µM | > 0.001 µM | 0.0712 µM | > 1 µM | > 0.3 µM | > 1 µM | 6.02 µM | > 10 µM | > 10 µM | > 2 µM | > 3 µM | > 10 µM | > 20 µM | > 10 µM | > 1 µM | > 5 µM | > 1 µM
5 | SAS (Oral Cavity Carcinoma) | > 10 µM | 0.511 µM | > 1 µM | 0.115 µM | > 1 µM | > 1 µM | > 10 µM | 0.00292 µM | 5.61 µM | > 10 µM | > 10 µM | 4.42 µM | > 10 µM | 5.19 µM | > 10 µM | > 10 µM | 0.013 µM | 9.89 µM | 0.059 µM | > 0.001 µM | 0.0777 µM | > 1 µM | > 0.3 µM | 0.191 µM | 1.13 µM | > 10 µM | > 10 µM | > 2 µM | > 3 µM | 6.14 µM | > 20 µM | > 10 µM | 0.226 µM | 0.479 µM | > 1 µM
